Structures are written as SMILES.

For one test, the target named is T1, Tumor necrosis factor receptor superfamily member 1A (Homo sapiens, UniProt P19438).
T1 sequence (P19438 whole entry): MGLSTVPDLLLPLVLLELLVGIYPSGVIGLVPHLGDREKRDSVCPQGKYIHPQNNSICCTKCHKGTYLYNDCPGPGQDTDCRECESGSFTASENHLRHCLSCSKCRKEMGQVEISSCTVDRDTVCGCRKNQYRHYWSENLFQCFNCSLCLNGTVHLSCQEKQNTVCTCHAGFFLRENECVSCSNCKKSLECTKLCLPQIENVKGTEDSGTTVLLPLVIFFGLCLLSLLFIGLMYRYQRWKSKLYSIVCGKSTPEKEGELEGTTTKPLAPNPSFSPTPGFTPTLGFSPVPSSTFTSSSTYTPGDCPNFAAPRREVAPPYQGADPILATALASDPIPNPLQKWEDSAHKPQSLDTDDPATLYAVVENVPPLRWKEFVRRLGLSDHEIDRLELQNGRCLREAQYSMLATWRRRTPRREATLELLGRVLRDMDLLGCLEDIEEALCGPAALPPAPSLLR
Briefly: Inhibition of TNF-alpha binding to TNFRc1.
As for `C=CCN1C(=O)n2c(cc3c(OC)cc(OC)cc32)C1=S`, the IC50 (commonly the midpoint of a concentration-inhibition curve) amounted to 610 nM.
Take `C=CCN1C(=O)n2c(c(C)c3c(OC)cc(OC)cc32)C1=S`: the IC50 worked out at 210 nM.
`CCN1C(=O)C(=Cc2c[nH]c3ccccc23)C(=O)N(CC)C1=S` yielded an IC50 of 1000 nM.
`C=CCN1C(=O)c2cc3ccc(OC)cc3n2C1=S` registered an IC50 of 1700 nM.
Still for that read-out and setting: under `CN1C(=O)C(=Cc2c[nH]c3ccccc23)C(=O)N(C)C1=S` stands 13000 nM.
On the same count and under the same terms, the same measure for `C=CCN1C(=O)c2cc3c(OC)c(OC)c(OC)cc3n2C1=S`: 780 nM; for `COC(=O)c1sccc1-c1ccc(C=C2C(=O)N(c3ccccc3)C(=S)N(c3ccccc3)C2=O)o1`: 40000 nM; for `CCN1C(=O)c2cc3c(OC)cc(OCc4ccccn4)cc3n2C1=S`: 310 nM.
On the same count and under the same terms, the same measure for `CCN1C(=O)c2cc3c(OC)cc(OC)cc3n2C1=S`: 1000 nM; for `CCN1C(=O)/C(=C/c2ccc(-c3ccsc3C(=O)OC)o2)SC1=S`: 300 nM.
With `CCN1C(=O)/C(=C/c2ccc(-c3ccccc3C(F)(F)F)o2)SC1=S`, the IC50 is 320 nM.
The same measure, in the same setting: under `CCN1C(=O)C(=Cc2c[nH]c3ccc([N+](=O)[O-])cc23)C(=O)N(CC)C1=S` stands 5500 nM; under `Cc1ccccc1N1C(=O)/C(=C/c2c[nH]c3ccccc23)C(=O)NC1=S`, 1800 nM.
Same read-out and setting: under `C=CCN1C(=O)c2cc3c(OC)cccc3n2C1=S` stands 2100 nM.
On the same count and under the same terms, under `CCN1C(=O)C(=Cc2sccc2C)C(=O)N(CC)C1=S` stands 14100 nM; under `CCN1C(=O)c2cc3c(OC)cc(OCC(=O)OC(C)(C)C)cc3n2C1=S`, 390 nM.
The molecule `CCN1C(=O)C(=Cc2cc3ccccc3[nH]2)C(=O)N(CC)C1=S` returned an IC50 of 10200 nM.
Same read-out and setting: under `Cc1ccccc1N1C(=O)C(=Cc2c[nH]c3ccccc23)C(=O)N(c2ccccc2C)C1=S` stands 790 nM; under `O=C1C(=Cc2ccc(-c3ccccc3C(F)(F)F)o2)C(=O)N(c2ccccc2)C(=S)N1c1ccccc1`, 11000 nM.
Still for that read-out and setting: the same measure for `CCN1C(=O)C(=Cc2ccc(Br)s2)C(=O)N(CC)C1=S`: 4500 nM; for `CCN1C(=O)C(=Cc2ccc(C)s2)C(=O)N(CC)C1=S`: 3400 nM.
Turning to `CCN1C(=O)/C(=C/c2ccc(-c3cc(C(F)(F)F)nn3C)s2)SC1=S`, the IC50 turned out to be 140 nM.
Same read-out and setting: the same measure for `CCN1C(=O)C(=Cc2ccc(-c3ccccc3C(F)(F)F)o2)C(=O)N(CC)C1=S`: 2000 nM.
`C=CCN1C(=O)c2c(C)c3c(OC)cc(OC)cc3n2C1=S` registered an IC50 of 1100 nM.
The same measure, in the same setting: under `CCN1C(=O)c2cc3c(OC)cc(OCOC)cc3n2C1=S` stands 280 nM; under `COc1cc(OC)c2cc3n(c2c1)C(=S)N(CCCN1CCOCC1)C3=O`, 670 nM.
`C=CCN1C(=O)c2cc3c(OC)cc(OC)cc3n2C1=S` showed an IC50 of 280 nM.
Same read-out and setting: the same measure for `C=CCN1C(=S)c2c(C)c3c(OC)cc(OC)cc3n2C1=S`: 210 nM; for `COc1cc(OC)c2cc3n(c2c1)C(=S)N(CCc1ccccc1)C3=O`: 1900 nM; for `CCN1C(=O)C(=Cc2cn(C)c3ccccc23)C(=O)N(CC)C1=S`: 130 nM.
Consider `CCN1C(=O)C(=Cc2c[nH]c3ccc(OCc4ccccc4)cc23)C(=O)N(CC)C1=S`, for which the IC50 amounted to 400 nM.
On the same count and under the same terms, under `CCN1C(=O)C(=Cc2ccc(-c3ccsc3C(=O)OC)o2)C(=O)N(CC)C1=S` stands 2800 nM; under `CCN1C(=O)C(=Cc2c[nH]c3c(C)cccc23)C(=O)N(CC)C1=S`, 600 nM.

A further test concerns the target T2, Tumor necrosis factor receptor superfamily member 1A (Homo sapiens) (UniProt P19438).
T2 sequence (whole entry): T1 sequence (P19438 whole entry)
Nature of the test: Compound was tested for inhibition of TNF-alpha binding to TNFRc1 at a concentration of 10 uM.
Regarding `CCN1C(=O)C(=Cc2ccc3ccccc3n2)C(=O)N(CC)C1=S`, the inhibition (usually the share of the control response that was lost under treatment) turned out to be 0%.
On the same count and under the same terms, the same measure for `C=CCN1C(=O)c2c(C)c3c(OC)cc(OC)cc3n2/C1=N/C#N`: 19%; for `C=CCN1C(=O)c2c(C)c3c(OC)cc(OC)cc3n2C1=O`: 0%.
For `CCN1C(=O)c2cc3ccccc3n2C1=S`, the inhibition came out at 27%.
As for `CCN1C(=O)C(=Cc2ccccn2)C(=O)N(CC)C1=S`, the inhibition came to 0%.
Same read-out and setting: the same measure for `C=CCN1C(=O)c2cc3cc(OC)c(OC)cc3n2C1=S`: 53%; for `CCN1C(=O)c2cc3c(OC)cc(OCC(=O)O)cc3n2C1=S`: 42%; for `CCN1C(=O)C(=Cc2cc(Br)cs2)C(=O)N(CC)C1=S`: 2%.
The same measure, in the same setting: the same measure for `C=CCN1C(=O)c2cc3cc(Cl)ccc3n2C1=S`: 17%; for `CCN1C(=O)C(=Cc2ccncc2)C(=O)N(CC)C1=S`: 0%.
On the same count and under the same terms, under `CCN1C(=O)C(=Cc2cnc3ccccc3c2)C(=O)N(CC)C1=S` stands 0%.
Molecule `CCN1C(=O)C(=Cc2cn(C(C)=O)c3ccccc23)C(=O)N(CC)C1=S` came in with an inhibition of 15%.
Regarding `CCN1C(=O)/C(=C/c2c[nH]c3ccccc23)SC1=S`, the inhibition turned out to be 40%.
Same read-out and setting: under `CCN1C(=O)C2Cc3c(OC)cc(OC)cc3N2C1=S` (centres undefined) stands 0%; under `CCN1C(=O)C(=Cc2cc([N+](=O)[O-])cs2)C(=O)N(CC)C1=S`, 0%.
Still for that read-out and setting: the same measure for `O=C1C(=Cc2c[nH]c3ccccc23)C(=O)N(c2ccccc2)C(=S)N1c1ccccc1`: 9%; for `CCN1C(=O)C(=Cc2ccc(-c3cc(C(F)(F)F)nn3C)s2)C(=O)N(CC)C1=S`: 33%; for `C=CCN1C(=O)c2cc3c(OC)cc(OC)cc3n2C1=O`: 0%.
`COc1cc(OC)c2c(C)c3n(c2c1)C(=O)CN(Cc1ccccc1)C3=O` registered an inhibition of 0%.
Still for that read-out and setting: under `CCN1C(=O)C(=Cc2cccnc2)C(=O)N(CC)C1=S` stands 0%.
Same read-out and setting: under `C=CCN1C(=O)c2cc3cc(OCc4ccccc4)ccc3n2C1=S` stands 46%.

The record behind these values is ChEMBL document CHEMBL1144966, “Both 5-arylidene-2-thioxodihydropyrimidine-4,6(1H,5H)-diones and 3-thioxo-2,3-dihydro-1H-imidazo[1,5-a]indol-1-ones are light-dependent tumor necrosis factor-alpha antagonists” (Bioorg Med Chem Lett, 2003).
